The source of these data is ChEMBL document CHEMBL5257035, “Nucleoside Derived Antibiotics to Fight Microbial Drug Resistance: New Utilities for an Established Class of Drugs?” (J Med Chem, 2016).

pIC50: −log10 of the molar value. Values after ≈ are worked out from the molar mass of the structure shown.

Experiment [1] deals with Cryptococcus neoformans. Briefly: Antifungal activity against Cryptococcus neoformans assessed as fungal growth inhibition. Type of experiment: functional.
A further experiment relates to Fusarium oxysporum. Briefly: Antifungal activity against Fusarium oxysporum assessed as inhibition of fungal growth. It counts as functional.
Experiment [2] has as its system Candida albicans. Briefly: Antifungal activity against Candida albicans assessed as inhibition of fungal growth. Type of experiment: functional.
Experiment [3] concerns Pseudomonas aeruginosa. Briefly: Antibacterial activity against Pseudomonas aeruginosa assessed as bacterial growth inhibition. It counts as functional.
In experiment [4] the test system is Pseudomonas aeruginosa. Briefly: Antibacterial activity against Pseudomonas aeruginosa infected in mouse. Type of experiment: functional.
For experiment [5], the system named is Candida albicans. Briefly: Antifungal activity against Candida albicans assessed as fungal growth inhibition measured after 24 hrs by micro broth dilution method. Type of experiment: functional.
For a further experiment, the system named is Aspergillus fumigatus. Briefly: Antifungal activity against Aspergillus fumigatus assessed as fungal growth inhibition. It counts as functional.
Experiment [6] has as its system Cryptococcus neoformans. Briefly: Antifungal activity against Cryptococcus neoformans assessed as fungal growth inhibition measured after 24 hrs by micro broth dilution method. Type of experiment: functional. Background: In broth dilution the organism is exposed to a series of concentrations in liquid medium.
In experiment [7] the test system is Candida albicans. Briefly: Antifungal activity against Candida albicans B-311 assessed as reduction fungal growth incubated for 16 hrs by microbroth dilution method. Type of experiment: functional.
Experiment [8] has as its target T1, Phospho-N-acetylmuramoyl-pentapeptide-transferase (Escherichia coli, UniProt E2QF15).
T1 sequence (E2QF15 whole entry): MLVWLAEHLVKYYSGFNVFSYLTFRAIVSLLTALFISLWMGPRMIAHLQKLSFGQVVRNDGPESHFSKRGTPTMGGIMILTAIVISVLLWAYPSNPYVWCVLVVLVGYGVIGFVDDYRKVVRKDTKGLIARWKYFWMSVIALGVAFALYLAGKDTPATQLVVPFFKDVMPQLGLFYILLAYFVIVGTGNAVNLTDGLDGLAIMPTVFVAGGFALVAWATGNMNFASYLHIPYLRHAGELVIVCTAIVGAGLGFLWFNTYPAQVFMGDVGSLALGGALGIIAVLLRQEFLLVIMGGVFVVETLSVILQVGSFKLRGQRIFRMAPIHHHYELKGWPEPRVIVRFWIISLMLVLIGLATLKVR
Briefly: Inhibition of MraY in Escherichia coli.

A further experiment relates to Staphylococcus aureus. Briefly: Antibacterial activity against methicillin-resistant Staphylococcus aureus assessed as reduction in bacterial growth by broth dilution method. It counts as functional.
The test system of experiment [9] is Cryptococcus neoformans. Briefly: Antifungal activity against Cryptococcus neoformans assessed as reduction in fungal growth. It counts as functional.
Experiment [10] in a line: Inhibition of Candida albicans SC5314 chitin synthase using UDP-GlcNAc as substrate incubated for 1 hr.
In experiment [11] the test system is Cutaneotrichosporon cutaneum. Briefly: Antifungal activity against Trichosporon cutaneum 3071 assessed as reduction in microbial growth inhibition for 48 hrs by broth microdilution assay. It counts as functional.
Experiment [12] deals with Candida albicans. Briefly: Antifungal activity against Candida albicans SC5314 assessed as reduction in microbial growth inhibition incubated for 48 hrs by broth microdilution assay. It counts as functional.
Experiment [13] is described as follows: Inhibition of Candida albicans chitin synthase.
In the next experiment the test system is Coccidioides immitis. Briefly: Antifungal activity against Coccidioides immitis assessed as reduction in fungal growth. Type of experiment: functional.
The test system of experiment [14] is Candida albicans. Briefly: Inhibition of Candida albicans chitin synthase at 1 uM relative to control.
In experiment [15] the test system is Pseudomonas aeruginosa. Briefly: Antibacterial activity against Pseudomonas aeruginosa assessed as reduction in bacterial growth. It counts as functional.
In a further experiment the test system is Aspergillus niger. Briefly: Antifungal activity against Aspergillus niger MTCC 282 assessed as reduction in microbial growth measured after 48 hrs by broth dilution method. It counts as functional.
Experiment [16] deals with Pseudomonas aeruginosa. Briefly: Antibacterial activity against Pseudomonas aeruginosa ATCC 27853 assessed as bacterial growth inhibition at 32 ug/ml measured after 16 hrs by broth microdilution method. The conditions noted are these: dose 32 µg/ml. Type of experiment: functional.
For experiment [17], the target named is Phospho-N-acetylmuramoyl-pentapeptide-transferase (Staphylococcus aureus, UniProt P0C1R8). Briefly: Inhibition of Staphylococcus aureus MraY.
Chain of Phospho-N-acetylmuramoyl-pentapeptide-transferase (Staphylococcus aureus, UniProt P0C1R8) (P0C1R8 whole entry): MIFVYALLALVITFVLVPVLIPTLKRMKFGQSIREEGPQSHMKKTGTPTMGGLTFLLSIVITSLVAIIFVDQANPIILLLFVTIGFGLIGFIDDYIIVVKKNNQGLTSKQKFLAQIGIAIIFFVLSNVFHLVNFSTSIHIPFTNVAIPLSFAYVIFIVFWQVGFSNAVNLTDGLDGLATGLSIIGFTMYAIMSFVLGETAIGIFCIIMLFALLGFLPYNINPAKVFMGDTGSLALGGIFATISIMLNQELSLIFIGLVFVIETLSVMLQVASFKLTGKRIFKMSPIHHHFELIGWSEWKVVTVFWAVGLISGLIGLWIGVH
In a further experiment the test system is Escherichia coli. Briefly: Antibacterial activity against Escherichia coli K12 assessed as bacterial growth inhibition by broth microdilution method. Type of experiment: functional.
For experiment [18], the system named is Pseudomonas aeruginosa. Briefly: Antimicrobial activity against Pseudomonas aeruginosa ATCC 27853 assessed as inhibition of microbial growth.

Broadly, the MIC is the lowest concentration found to suppress growth. For `COc1ccc(OCc2cn(C[C@H]3O[C@@H](n4ccc(=O)[nH]c4=O)[C@@H]4OC(C)(C)O[C@@H]43)nn2)cc1`, the minimal inhibitory concentration (MIC) with Cryptococcus neoformans [1] stood at 8 µg/mL (≈ 17 µM); in the experiment on Fusarium oxysporum, 32 µg/mL (≈ 67.9 µM); with Candida albicans [2] it was 24 µg/mL (≈ 50.9 µM).

Usually ED50 stands for the dose at which the effect has come halfway, by size or by number of responders. On to `CSCC[C@H](NC(=O)NC(Cc1cccc(O)c1)C(=O)O)C(=O)NC(CN(C)C(=O)[C@@H](N)C(N)Cc1cccc(O)c1)C(=O)N/C=C1/C[C@@H](O)[C@H](n2ccc(=O)[nH]c2=O)O1` (some centres not stated), for which the MIC in the experiment on Pseudomonas aeruginosa [3] was 1.5 µg/mL (≈ 1.75 µM). In the experiment on Pseudomonas aeruginosa [4], this compound returned an ED50 of 0.05 mg/kg.

As for `Nc1ncnc2c1ncn2[C@@H]1O[C@H](CSCCC(=O)O)[C@@H](O)[C@H]1O`, the minimum inhibitory concentration (MIC) in the experiment on Candida albicans [5], in the experiment with Aspergillus fumigatus and with Cryptococcus neoformans [6] was 0.19 µM (≈ 0.0675 µg/mL) each time.

As to `CC(C)C[C@H](N)C(=O)N[C@H](C(=O)N[C@@H](C(=O)O)[C@H]1OC(n2cc(C=O)[nH]c2=O)[C@H](O)[C@@H]1O)[C@H](C)[C@H](O)c1cc(O)ccn1` (some centres not stated), in the experiment with Candida albicans [7], the MIC was 83 µg/mL (≈ 136 µM).

The term pIC50 denotes −log10 of the IC50, conventionally taken in molar units. A lower pIC50 goes with a large IC50. The compound `NC[C@H]1O[C@@H](O[C@@H](Cn2cc(CCCCCCCCOc3ccc(C(=O)c4ccccc4)cc3)nn2)[C@H]2O[C@@H](n3ccc(=O)[nH]c3=O)[C@H](O)[C@@H]2O)[C@H](O)[C@@H]1O` gave a pIC50 in experiment [8] of 5.10. Moreover, in the experiment with Staphylococcus aureus, the MIC was 8 µg/mL (≈ 10.5 µM).

The IC50 is the concentration that gives 50% inhibition. For the compound `C[C@@H]([C@H](N)C(=O)N[C@H](C(=O)O)[C@H]1O[C@@H](n2ccc(=O)[nH]c2=O)[C@H](O)[C@@H]1O)[C@H](O)c1ccc(O)cn1` [NIKKOMYCIN], the minimum inhibitory concentration (MIC) was 0.03 µg/mL (≈ 0.0606 µM) with Cryptococcus neoformans [9]; 64 µg/mL in [11]; 8 µg/mL with Candida albicans [12]; 0.25 µg/mL (≈ 0.505 µM) in the experiment on Coccidioides immitis; 10 µg/mL (≈ 20.2 µM) with Candida albicans [7]. The compound also gave an IC50 in experiment [10] of 0.3 µg/mL (≈ 0.606 µM). Moreover, the pIC50 in [13] was 6.10.

As to `CSCC[C@H](NC(=O)NC(Cc1cccc(O)c1)C(=O)O)C(=O)NC(CN(C)C(=O)[C@@H](N)C(N)Cc1cccc(O)c1)C(=O)N/C=C1/C[C@@H](O)[C@H](N2CCC(=O)NC2=O)O1` (some centres not stated), the MIC in the experiment with Pseudomonas aeruginosa [3] was 1.5 µg/mL (≈ 1.75 µM). The compound also displayed an ED50 in the experiment with Pseudomonas aeruginosa [4] of more than 0.1 mg/kg.

Regarding `NC[C@H]1O[C@@H](O[C@@H](c2cn(CCCCCCCCCCOc3ccc(C(=O)c4ccccc4)cc3)nn2)[C@H]2O[C@@H](n3ccc(=O)[nH]c3=O)[C@H](O)[C@@H]2O)[C@H](O)[C@@H]1O`, the minimal inhibitory concentration (MIC) with Staphylococcus aureus stood at 8 µg/mL (≈ 10.3 µM).

A word on the inhibition: it is how much of the control response was suppressed. For `O=C(NC[C@@H]1O[C@H](n2ccc(=O)[nH]c2=O)[C@@H](O)[C@H]1O)OCCOC(=O)NC[C@H]1O[C@@H](n2ccc(=O)[nH]c2=O)[C@H](O)[C@@H]1O`, in the experiment with Candida albicans [14], the inhibition came out at 32%. Moreover, the pIC50 in experiment [13] was 5.96.

In the case of `C[C@H](N)C(=O)N(C)[C@@H](C)[C@H](NC(=O)[C@H](C)NC(=O)N[C@@H](Cc1c[nH]c2ccccc12)C(=O)O)C(=O)N/C=C1/C[C@@H](O)[C@H](n2ccc(=O)[nH]c2=O)O1` [PACIDAMYCIN D], in the experiment on Pseudomonas aeruginosa [15], the minimal inhibitory concentration (MIC) was found to be 32 µg/mL (≈ 45 µM).

With `C[C@@H]([C@H](N)C(=O)N[C@H](C(=O)O)[C@@H]1C[C@@H](O)[C@@H](O)[C@H](n2ccc(=O)[nH]c2=O)O1)[C@H](O)c1ccc(O)cc1`, the minimal inhibitory concentration (MIC) with Cryptococcus neoformans [9] is 0.25 µg/mL (≈ 0.492 µM); in the experiment on Aspergillus niger it was 0.03 µg/mL; with Candida albicans [2], 0.03 µg/mL (≈ 0.059 µM); in the experiment on Coccidioides immitis it was 0.03 µg/mL (≈ 0.059 µM).

On to `CCOC(=O)CCSC[C@H]1O[C@@H](n2cnc3c(N)cccc32)[C@H](O)[C@@H]1O`, for which the minimum inhibitory concentration (MIC) with Candida albicans [5], with Aspergillus fumigatus and with Cryptococcus neoformans [6] was 0.19 µM (≈ 0.0725 µg/mL) in each case.

Regarding `CCCCCCCCCCCCCCCCC(=O)[C@H](NCCCC(=O)NCCCCNC(=N)N)[C@H](O[C@@H]1O[C@H](CN)[C@@H](O)[C@H]1O)[C@H]1O[C@@H](n2ccc(=O)[nH]c2=O)[C@H](O)[C@@H]1O`, the MIC in the experiment with Pseudomonas aeruginosa [16] was 4 µg/mL (≈ 4.68 µM).

The compound `COC(=O)C1=C[C@@H](O)[C@@H](O)[C@H](O[C@@H](C(N)=O)[C@H]2O[C@@H](n3ccc(=O)[nH]c3=O)[C@H](O)[C@@H]2OC)O1` showed a negative logarithm of the IC50 (pIC50) in [17] of 7.57.

In the case of `Nc1nc2c(ncn2[C@@H]2O[C@H](CO)[C@@H](O)[C@H]2O)c(=O)o1`, the MIC with Escherichia coli was determined as 12.5 µg/mL (≈ 44 µM).

Take `O=C(NC[C@@H]1O[C@H](n2ccc(=O)[nH]c2=O)[C@@H](O)[C@H]1O)OCCOCCOC(=O)NC[C@H]1O[C@@H](n2ccc(=O)[nH]c2=O)[C@H](O)[C@@H]1O`: the inhibition in the experiment on Candida albicans [14] was 45%. In experiment [13], the pIC50 was 4.93.

Regarding `C[C@@H](NC(=O)NC(Cc1cccc(O)c1)C(=O)O)C(=O)N[C@H](C(=O)N/C=C1/C[C@@H](O)[C@H](n2ccc(=O)[nH]c2=O)O1)[C@H](C)N(C)C(=O)[C@@H](N)C(N)c1cccc(O)c1` (some centres not stated), the MIC in the experiment on Pseudomonas aeruginosa [18] came out at 32 µg/mL.
